Reference: patent US20060079453A1, “Hla binding peptides and their uses” (priority 2002, published 2006)
Like-named read-outs stand apart in the source and are kept apart here. No end group written: not given here.

Key:
Assay in all cases: biochemical
Type in all cases: binding
[1] = target: HLA-DR DRB1*0101 (DR1) (Homo sapiens, UniProt P01903+P01911, A100R/D57E/F55L/F60I/F76Y/I96L/L162R/M171V/P40L/Q125E/R42F/V115G/Y59C)
[2] = target: HLA-DR DRB5*0101 (DR51) (Homo sapiens, UniProt P01903+Q30154)
[3] = target: HLA-DR DRB1*0401 (DR4) (Homo sapiens, UniProt P01903+P01911, A100K/A169T/F76Y/I96L/K127E/L162R/M171V/N62H/P40V/Q125Y/R42H/S133A/S149N/S66Y/V115G/V209L/W38E)
[4] = target: HLA-DR DRB1*1101 (DR11) (Homo sapiens, UniProt P01903+P01911, A100R/A169T/A87E/I96F/K41T/L162R/M171V/P40S/Q125H/Q178H/Q39Y/Q99D/R42S/S66Y/T262R/V115G/W38E)
HLA-DR DRB1*1101 (DR11), sequence (P01903 26-254 limits assumed, other chains not shown): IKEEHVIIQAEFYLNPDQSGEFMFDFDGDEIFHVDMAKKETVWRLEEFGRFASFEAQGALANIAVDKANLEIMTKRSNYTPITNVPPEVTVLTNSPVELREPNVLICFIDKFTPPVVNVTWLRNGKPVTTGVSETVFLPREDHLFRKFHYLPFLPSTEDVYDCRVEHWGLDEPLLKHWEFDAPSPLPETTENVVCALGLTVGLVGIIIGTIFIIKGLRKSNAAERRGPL

[5] = target: HLA-DR DRB1*1501 (DR15) (Homo sapiens, UniProt P01903+P01911)
[6] = target: HLA-DR DRB1*1302 (DR13) (Homo sapiens, UniProt P01903+P01911, A100E/A169T/K41T/L162R/M171V/P40S/Q125H/Q178H/Q39Y/Q99D/R42S/S66N/T262R/V115G/W38E/Y61H)
HLA-DR DRB1*1302 (DR13), sequence (P01903 26-254 limits assumed, other chains not shown): as above

[7] = target: HLA-DR DRB4*0101 (DR53) (Homo sapiens, UniProt P01903+P13762, G164S)
[8] = target: HLA-DR DRB1*0701 (DR7) (Homo sapiens, UniProt P01903+P01911, A100R/A102G/A103Q/D57E/D86V/E43K/F76Y/K127E/L162R/M171V/P40G/Q125H/Q99D/R33Q/R42Y/R54Q/S133A/S66F/T210M/V115G/Y107V/Y59L/Y89S)
[9] = target: HLA-DR DRB1*0301 (DR3) (Homo sapiens, UniProt P01903+P01911, A100K/A102G/A103R/A169T/F55Y/I96L/K41T/L162R/M171V/P40S/Q125H/Q178H/Q39Y/R42S/S66N/T106N/T262R/W38E/Y61H)
HLA-DR DRB1*0301 (DR3), sequence (P01903 26-254 limits assumed, other chains not shown): as above

EEYVRFDSDVGE was tested. Which IC50 ([1]; DRB1 *0101) did it give?
Its IC50 is ≥ 50000 nM.

What about the IC50 ([2]; DRB5 *0101) of the same sequence?
Its IC50 is ≥ 200000 nM.

And the IC50 ([3]; DRB1 *0401)?
Its IC50 is 216 nM.

And the IC50 ([4]; DRB1 *1101)?
The IC50 was ≥ 200000 nM.

With EFAFKDLFVVYRDSI as the sequence, how does the IC50 ([2]; read-out: DRB5 *0101) read?
Its IC50 is 6000 nM.

What about the IC50 ([5]; read-out: DRBI *1501) of the same sequence?
Its IC50 is 5360 nM.

And the IC50 ([6]; read-out: DRBI *1302)?
The IC50 was 10000 nM.

What about the IC50 ([4]; read-out: DRB1 *1101) of the same sequence?
The IC50 was 9500 nM.

Which results are given for ENEYATGAVRPFQAA?
IC50 ([1]; DRB1 *0101): 4440 nM; IC50 ([7]; DRB4 *0101): 10000 nM; IC50 ([2]; DRB5 *0101): > 10300 nM; IC50 ([5]; DRBI *1501): 3010 nM; IC50 ([3]; DRB1 *0401): 281 nM; IC50 ([8]; DRB1 *0701): 4970 nM; IC50 ([6]; DRBI *1302): 9300 nM

Which results are given for EYLILSARDVLAVVS?
IC50 ([7]; DRB4 *0101): 2530 nM; IC50 [2]: 4150 nM; IC50 [5]: 2340 nM; IC50 [3]: 508 nM; IC50 [4]: 6860 nM

With IQQLLMGTVNIVCPT as the sequence, how does the IC50 ([2]; read-out: DRB5 *0101) read?
The IC50 was > 55100 nM.

And the IC50 ([5]; read-out: DRBI *1501)?
The IC50 was 2010 nM.

What about the IC50 ([6]; read-out: DRBI *1302) of the same sequence?
Its IC50 is 9 nM.

What about the IC50 ([4]; read-out: DRB1 *1101) of the same sequence?
Its IC50 is 11100 nM.

For KATLQDIVLHLEPQN, which IC50 ([1]; DRB1 *0101) is on record?
The IC50 was 1200 nM.

And the IC50 ([7]; DRB4 *0101)?
Its IC50 is 159 nM.

What about the IC50 ([2]; DRB5 *0101) of the same sequence?
The IC50 was > 9930 nM.

And the IC50 ([5]; DRBI *1501)?
The IC50 was 6970 nM.

And the IC50 ([3]; DRB1 *0401)?
Its IC50 is 1990 nM.

And the IC50 ([8]; DRB1 *0701)?
The IC50 was 9090 nM.

What about the IC50 ([6]; DRBI *1302) of the same sequence?
Its IC50 is 603 nM.

And the IC50 ([4]; DRB1 *1101)?
Its IC50 is 25900 nM.

What does the source list for KKPLNEILIRCHCQ?
IC50 ([7]; read-out: DRB4 *0101): 140 nM; IC50 ([6]; read-out: DRBI *1302): 965 nM; IC50 ([4]; read-out: DRB1 *1101): 1300 nM

What does the source list for KSKFNILSSPLFNNF?
IC50 ([1]; read-out: DRB1 *0101): 0.8 nM; IC50 ([2]; read-out: DRB5 *0101): 32 nM; IC50 ([5]; read-out: DRBI *1501): 5.9 nM; IC50 ([3]; read-out: DRB1 *0401): 16 nM; IC50 ([8]; read-out: DRB1 *0701): 65 nM; IC50 ([6]; read-out: DRBI *1302): 25 nM

For KSNFLNCYVSGFHPSD, which IC50 ([1]; DRB1 *0101) is on record?
Its IC50 is 2500 nM.

What about the IC50 [9] of the same sequence?
Its IC50 is > 900000 nM.

And the IC50 ([4]; DRB1 *1101)?
The IC50 was 5000 nM.

What does the source list for KVSCKGSGYTFTAYQMH?
IC50 ([1]; DRB1 *0101): 5000 nM; IC50 ([8]; DRB1 *0701): 50000 nM; IC50 ([4]; DRB1 *1101): > 200000 nM

What does the source list for LAHYDVLLSYPNKTA?
IC50 ([7]; read-out: DRB4 *0101): 589 nM; IC50 ([5]; read-out: DRBI *1501): 82 nM; IC50 ([4]; read-out: DRB1 *1101): 380 nM

Which IC50 ([7]; read-out: DRB4 *0101) does the source give for LCNFKKNIIALLHP here?
Its IC50 is 99 nM.

What about the IC50 ([2]; read-out: DRB5 *0101) of the same sequence?
The IC50 was > 42600 nM.

What about the IC50 ([5]; read-out: DRBI *1501) of the same sequence?
The IC50 was 29300 nM.

What about the IC50 ([6]; read-out: DRBI *1302) of the same sequence?
Its IC50 is 16 nM.

For LGFFPDHQLDPAFRANT, which IC50 ([9]; read-out: DRB1 *0301) is on record?
Its IC50 is 12000 nM.

What does the source list for LQDVVLELTPQTEID?
IC50 ([1]; DRB1 *0101): 1490 nM; IC50 ([7]; DRB4 *0101): 1120 nM; IC50 ([2]; DRB5 *0101): > 31400 nM; IC50 ([5]; DRBI *1501): > 33100 nM; IC50 ([8]; DRB1 *0701): 5670 nM; IC50 ([6]; DRBI *1302): 1140 nM; IC50 ([4]; DRB1 *1101): > 31600 nM

Which results are given for LREYILDLHPEPTDL?
IC50 ([2]; read-out: DRB5 *0101): > 40400 nM; IC50 ([4]; read-out: DRB1 *1101): 9830 nM

How did the IC50 ([1]; DRB1 *0101) turn out when LRTIQQLLMGTVNIV was run?
Its IC50 is 13 nM.

And the IC50 ([7]; DRB4 *0101)?
Its IC50 is 15 nM.

What about the IC50 ([2]; DRB5 *0101) of the same sequence?
The IC50 was 32100 nM.

And the IC50 ([5]; DRBI *1501)?
The IC50 was 265 nM.

What about the IC50 ([3]; DRB1 *0401) of the same sequence?
Its IC50 is 108 nM.

And the IC50 [9]?
Its IC50 is 23200 nM.

And the IC50 ([8]; DRB1 *0701)?
The IC50 was 513 nM.

What about the IC50 ([6]; DRBI *1302) of the same sequence?
The IC50 was 6.4 nM.
